Experimental data as given in patent US8084479B2, “Thiazole compounds and methods of use” (Amgen Inc., priority 2006, dated 2011).

Molecular target: PKBα (Homo sapiens, UniProt P31749)
Test: PKB kinase assay (P33-labeled ATP, peptide substrate, filter plate)
Assay type: biochemical
Conditions: PKBα enzyme (full length or kinase domain with pleckstrin domain deleted)
Text: The kinase assay for evaluating PKB activity comprises active PKB enzymes, a PKB specific substrate, and P^33-labeled ATP. […] The phosphorylated substrate was captured by a phosphocellulose membrane filter plate (MLLIPORE) and measured by a Wallac Microbeta liquid scintillation counter (Perkin Elmer).

Chain of PKBα (P31749 118-480 limits assumed): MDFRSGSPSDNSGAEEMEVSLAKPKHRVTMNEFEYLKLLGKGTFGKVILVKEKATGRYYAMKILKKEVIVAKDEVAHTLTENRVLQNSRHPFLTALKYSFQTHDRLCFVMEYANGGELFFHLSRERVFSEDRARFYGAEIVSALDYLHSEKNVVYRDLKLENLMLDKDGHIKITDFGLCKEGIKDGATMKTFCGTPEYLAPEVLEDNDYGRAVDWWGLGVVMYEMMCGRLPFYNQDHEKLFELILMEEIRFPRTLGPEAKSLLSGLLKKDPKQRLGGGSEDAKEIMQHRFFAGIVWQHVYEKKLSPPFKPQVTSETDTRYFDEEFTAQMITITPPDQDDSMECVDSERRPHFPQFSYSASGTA

SMILES	IC50 [nM]
COCc1nc(NC[C@H](Cc2ccc(C(F)(F)F)cc2)NCCN2CCOCC2)sc1-c1nc2ccncc2s1 [Example 34, 4-(Methoxymethyl)-N—((S)-2-(2-morpholinoethylamino)-3-(4-(trifluoromethyl)phenyl)propyl)-5-(thiazolo[5,4-c]pyridin-2-yl)thiazol-2-amine]	50 to 1000
N[C@H](CNc1ncc(-c2ccc3[nH]c(=O)sc3c2)s1)Cc1c[nH]c2ccccc12 [Example 35, 6-(2-((S)-2-amino-3-(1H-indol-3-yl)propylamino)thiazol-5-yl)benzo[d]thiazol-2(3H)-one]	50 to 1000
N[C@H](CNc1ncc(-c2ccc3c(c2)CCC(=O)N3)s1)Cc1ccc(C(F)(F)F)cc1 [Example 36, 6-(2-((S)-2-amino-3-(4-(trifluoromethyl)phenyl)propylamino)thiazol-5-yl)-3,4-dihydroquinolin-2(1H)-one]	1000 to 10000
Nc1n[nH]c2ccc(-c3cnc(NC[C@@H](N)Cc4c[nH]c5ccccc45)s3)cc12 [Example 37, 5-(2-((S)-2-amino-3-(1H-indol-3-yl)propylamino)thiazol-5-yl)-1H-indazol-3-amine]	1000 to 10000
Nc1noc2ccc(-c3cnc(NC[C@@H](N)Cc4c[nH]c5ccccc45)s3)cc12 [Example 38, 5-(2-((S)-2-amino-3-(1H-indol-3-yl)propylamino)thiazol-5-yl)benzo[d]isoxazol-3-amine]	50 to 1000
N[C@H](CNc1ncc(-c2ccc3[nH]c(=O)oc3c2)s1)Cc1c[nH]c2ccccc12 [Example 39, 6-(2-((S)-2-amino-3-(1H-indol-3-yl)propylamino)thiazol-5-yl)benzo[d]oxazol-2(3H)-one]	50 to 1000
N[C@H](CNc1ncc(-c2ccc3[nH]c(=O)oc3c2)s1)Cc1ccc(C(F)(F)F)cc1 [Example 40, 6-(2-((S)-2-amino-3-(4-(trifluoromethyl)phenyl)propylamino)thiazol-5-yl)benzo[d]oxazol-2(3H)-one]	< 50
N[C@H](CNc1ncc(-c2ccc3c(c2)C(F)(F)C(=O)N3)s1)Cc1ccc(C(F)(F)F)cc1 [Example 41, 5-(2-((S)-2-amino-3-(4-(trifluoromethyl)phenyl)propylamino)thiazol-5-yl)-3,3-difluoroindolin-2-one]	50 to 1000
N[C@H](CNc1ncc(-c2ccc3c(c2)CC(=O)N3)s1)Cc1ccc(C(F)(F)F)cc1 [Example 42, 5-(2-((S)-2-amino-3-(4-(trifluoromethyl)phenyl)propylamino)thiazol-5-yl)indolin-2-one]	< 50
N[C@H](CNc1ncc(-c2ccc3[nH]c(=O)sc3c2)s1)Cc1ccc(C(F)(F)F)cc1 [Example 43, 6-(2-((S)-2-amino-3-(4-(trifluoromethyl)phenyl)propylamino)thiazol-5-yl)benzo[d]thiazol-2(3H)-one]	< 50
N[C@H](CNc1ncc(-c2ccc3c(c2)CC(=O)N3)s1)Cc1cccc(C(F)(F)F)c1 [Example 44, 5-(2-((S)-2-amino-3-(3-(trifluoromethyl)phenyl)propylamino)thiazol-5-yl)indolin-2-one]	50 to 1000
CNc1n[nH]c2ccc(-c3cnc(NC[C@@H](N)Cc4c[nH]c5ccccc45)s3)cc12 [Example 45, 5-(2-((S)-2-amino-3-(1H-indol-3-yl)propylamino)thiazol-5-yl)-N-methyl-1H-indazol-3-amine]	1000 to 10000
N[C@H](CNc1ncc(-c2ccc3[nH]c(=O)oc3c2)s1)Cc1cccc(C(F)(F)F)c1 [Example 46, 6-(2-((S)-2-amino-3-(3-(trifluoromethyl)phenyl)propylamino)thiazol-5-yl)benzo[d]oxazol-2(3H)-one]	50 to 1000
CC1C(=O)Nc2ccc(-c3cnc(NC[C@@H](N)Cc4ccc(C(F)(F)F)cc4)s3)cc21 (stereo partly drawn) [Example 47, 5-(2-((S)-2-amino-3-(4-(trifluoromethyl)phenyl)propylamino)thiazol-5-yl)-3-methylindolin-2-one]	50 to 1000
N[C@H](CNc1ncc(-c2ccc3cn[nH]c3c2)s1)Cc1ccc(C(F)(F)F)cc1 [Example 48, N—((S)-2-amino-3-(4-(trifluoromethyl)phenyl)propyl)-5-(1H-indazol-6-yl)thiazol-2-amine]	50 to 1000
NC(=O)c1ccc(-c2cnc(NC[C@@H](N)Cc3ccc(C(F)(F)F)cc3)s2)cc1 [Example 49, (S)-4-(2-(2-amino-3-(4-(trifluoromethyl)phenyl)propylamino)thiazol-5-yl)benzamide]	1000 to 10000
Nc1n[nH]c2ccc(-c3cnc(NC[C@@H](N)Cc4ccc(C(F)(F)F)cc4)s3)cc12 [Example 50, 5-(2-((S)-2-amino-3-(4-(trifluoromethyl)phenyl)propylamino)thiazol-5-yl)-1H-indazol-3-amine]	50 to 1000
Nc1noc2ccc(-c3cnc(NC[C@@H](N)Cc4ccc(C(F)(F)F)cc4)s3)cc12 [Example 51, 5-(2-((S)-2-amino-3-(4-(trifluoromethyl)phenyl)propylamino)thiazol-5-yl)benzo[d]isoxazol-3-amine]	50 to 1000
Nc1n[nH]c2cc(-c3cnc(NC[C@@H](N)Cc4ccc(C(F)(F)F)cc4)s3)ccc12 [Example 52, 6-(2-((S)-2-amino-3-(4-(trifluoromethyl)phenyl)propylamino)thiazol-5-yl)-1H-indazol-3-amine]	1000 to 10000
Cn1nc(N)c2ccc(-c3cnc(NC[C@@H](N)Cc4ccc(C(F)(F)F)cc4)s3)cc21 [Example 53, 6-(2-((S)-2-amino-3-(4-(trifluoromethyl)phenyl)propylamino)thiazol-5-yl)-1-methyl-1H-indazol-3-amine]	1000 to 10000
N[C@H](CNc1ncc(-c2ccc3c(c2)CC(=O)N3)s1)Cc1ccc(Cl)cc1 [Example 54, 5-(2-((S)-2-Amino-3-(4-chlorophenyl)propylamino)thiazol-5-yl)indolin-2-one]	< 50
N[C@H](CNc1ncc(-c2ccc3[nH]c(=O)oc3c2)s1)Cc1ccc(Cl)cc1 [Example 55, 6-(2-((S)-2-Amino-3-(4-chlorophenyl)propylamino)thiazol-5-yl)benzo[d]oxazol-2(3H)-one]	< 50

Now from value to molecule:

IC50 [nM]	SMILES
50 to 1000	CNCc1nc(NC[C@@H](N)Cc2ccc(C(F)(F)F)cc2)sc1-c1ccc2cnccc2c1 [Example 56, N—((S)-2-amino-3-(4-(trifluoromethyl)phenyl)propyl)-5-(isoquinolin-6-yl)-4-((methylamino)methyl)thiazol-2-amine]
< 50	Cn1c(=O)[nH]c2ccc(-c3cnc(NC[C@@H](N)Cc4ccc(C(F)(F)F)cc4)s3)cc21 [Example 57, 6-(2-((S)-2-amino-3-(4-(trifluoromethyl)phenyl)propylamino)thiazol-5-yl)-1-methyl-1H-benzo[d]imidazol-2(3H)-one]
50 to 1000	COCc1nc(NC[C@@H](N)Cc2ccc(C(F)(F)F)cc2)sc1-c1ccc2[nH]c(=O)n(C)c2c1 [Example 58, 6-(2-((S)-2-amino-3-(4-(trifluoromethyl)phenyl)propylamino)-4-(methoxymethyl)thiazol-5-yl)-1-methyl-1H-benzo[d]imidazol-2(3H)-one]
< 50	COCc1nc(NC[C@@H](N)Cc2ccc(C(F)(F)F)cc2)sc1-c1ccc2[nH]c(=O)oc2c1 [Example 59, 6-(2-((S)-2-amino-3-(4-(trifluoromethyl)phenyl)propylamino)-4-(methoxymethyl)thiazol-5-yl)benzo[d]oxazol-2(3H)-one]
1000 to 10000	N[C@H](CNc1nc(-c2ccccn2)c(-c2nc3ccncc3s2)s1)Cc1ccc(C(F)(F)F)cc1 [Example 60, N—((S)-2-amino-3-(4-(trifluoromethyl)phenyl)propyl)-4-(pyridin-2-yl)-5-(thiazolo[5,4-c]pyridin-2-yl)thiazol-2-amine]
1000 to 10000	N#Cc1nc(NC[C@@H](N)Cc2ccc(C(F)(F)F)cc2)sc1-c1ccc2c(c1)CC(=O)N2 [Example 61, 2-((S)-2-amino-3-(4-(trifluoromethyl)phenyl)propylamino)-5-(2-oxoindolin-5-yl)thiazole-4-carbonitrile]
1000 to 10000	Cn1c(=O)[nH]c2ccc(-c3sc(NC[C@@H](N)Cc4ccc(C(F)(F)F)cc4)nc3C#N)cc21 [Example 62, 2-((S)-2-amino-3-(4-(trifluoromethyl)phenyl)propylamino)-5-(3-methyl-2-oxo-2,3-dihydro-1H-benzo[d]imidazol-5-yl)thiazole-4-carbonitrile]
1000 to 10000	N#Cc1nc(NC[C@@H](N)Cc2ccc(C(F)(F)F)cc2)sc1-c1ccc2cnccc2c1 [Example 63, 2-((S)-2-amino-3-(4-(trifluoromethyl)phenyl)propylamino)-5-(isoquinolin-6-yl)thiazole-4-carbonitrile]
50 to 1000	N[C@H](CNc1ncc(-c2ccc3cnncc3c2)s1)Cc1ccc(C(F)(F)F)cc1 [Example 64, N—((S)-2-amino-3-(4-(trifluoromethyl)phenyl)propyl)-5-(phthalazin-6-yl)thiazol-2-amine]
50 to 1000	N[C@H](CNc1ncc(-c2ccc3c(O)nncc3c2)s1)Cc1ccc(C(F)(F)F)cc1 [Example 65, 6-(2-((S)-2-amino-3-(4-(trifluoromethyl)phenyl)propylamino)thiazol-5-yl)phthalazin-1-ol]
< 50	N[C@H](CNc1ncc(-c2ccc3cnccc3c2)s1)Cc1cccc(Cl)c1 [Example 66, N—((S)-2-amino-3-(3-chlorophenyl)propyl)-5-(isoquinolin-6-yl)thiazol-2-amine]
50 to 1000	COc1ccc(C[C@H](N)CNc2ncc(-c3ccc4c(c3)CC(=O)N4)s2)cc1 [Example 67, 5-(2-((S)-2-amino-3-(4-methoxyphenyl)propylamino)thiazol-5-yl)indolin-2-one]
< 50	N[C@H](CNc1ncc(-c2ccc3cnccc3n2)s1)Cc1ccc(C(F)(F)F)cc1 [Example 68, N—((S)-2-amino-3-(4-(trifluoromethyl)phenyl)propyl)-5-(1,6-naphthyridin-2-yl)thiazol-2-amine]
< 50	COCc1nc(NC[C@@H](N)Cc2ccc(C(F)(F)F)cc2)sc1-c1ccc2c(c1)CC(=O)N2 [Example 69, 5-(2-((S)-2-amino-3-(4-(trifluoromethyl)phenyl)propylamino)-4-(methoxymethyl)thiazol-5-yl)indolin-2-one]
